We go through 15 molecules from patent US20230391760A1, “HETEROCYCLIC GLP-1 AGONISTS” (Gasherbrum Bio, Inc., priority 2020, published 2023).

Chain of GLP-1 Receptor (P43220 24-463, species assumed): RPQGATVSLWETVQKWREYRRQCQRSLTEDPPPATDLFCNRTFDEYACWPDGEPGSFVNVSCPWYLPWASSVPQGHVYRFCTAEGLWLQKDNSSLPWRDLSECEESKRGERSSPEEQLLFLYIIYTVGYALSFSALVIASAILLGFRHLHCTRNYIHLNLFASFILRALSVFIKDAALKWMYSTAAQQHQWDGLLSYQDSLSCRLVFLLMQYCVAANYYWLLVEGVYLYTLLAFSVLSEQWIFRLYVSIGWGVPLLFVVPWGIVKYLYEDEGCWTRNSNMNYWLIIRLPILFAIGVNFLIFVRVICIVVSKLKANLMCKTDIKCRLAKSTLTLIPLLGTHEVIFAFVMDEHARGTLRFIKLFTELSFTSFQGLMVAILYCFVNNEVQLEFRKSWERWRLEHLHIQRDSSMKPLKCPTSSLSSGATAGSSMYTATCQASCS

This assay has as its target GLP-1 Receptor (Homo sapiens, UniProt P43220). As to the kind of experiment: GLP-1R agonist cAMP stimulation assay (HEK293/GLP1R/CRE-LUC cells, cAMP dynamic 2 Kit). The format is cell-based. Particulars: HEK293/CRE-Luc cell line stably expressing the GLP-1 Receptor, 30 min at 37° C. In a few lines: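 HEK293 cells stably expressing human GLP-1R with CRE-luciferase, 1000 cells/well in DPBS with 0.5 mM IBMX and 0.1% BSA, treated with compound in 1/2-log serial dilution for 30 min at 37 °C. cAMP then detected by HTRF (cAMP-d2 plus anti-cAMP cryptate), 1 h at room temperature in the dark.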
As to `O=c1[nH]c(-c2cc3nc(CN4CCC(c5cccc6c5OC[C@@H](c5ccc(Cl)cc5)O6)CC4)n(C[C@@H]4CCO4)c3cn2)no1` [Compound 422a, 3-[2-({4-[(2R)-2-(4-chlorophenyl)-2,3-dihydro-1,4-benzodioxin-5-yl]piperidin-1-yl}methyl)-3-{[(2S)-oxetan-2-yl]methyl}-3H-imidazo[4,5-c]pyridin-6-yl]-4,5-dihydro-1,2,4-oxadiazol-5-one], the midpoint of the response, the EC50, lay at 0.17 nM.

`FC(F)(F)c1nnc(-c2cc3nc(CN4CCC(c5cccc6c5OC[C@@H](c5ccc(Cl)cc5)O6)CC4)n(C[C@@H]4CCO4)c3cn2)[nH]1` [Compound 423a, 4-[(2R)-2-(4-chlorophenyl)-2,3-dihydro-1,4-benzodioxin-5-yl]-1-[(3-{[(2S)-oxetan-2-yl]methyl}-6-[5-(trifluoromethyl)-4H-1,2,4-triazol-3-yl]-3H-imidazo[4,5-c]pyridin-2-yl)methyl]piperidine]: the EC50 (usually the concentration needed to bring the measured effect to its halfway point) stood at 0.13 nM.

Turning to `Cc1nnc(-c2cc3nc(CN4CCC(c5cccc6c5OC[C@@H](c5ccc(Cl)cc5)O6)CC4)n(C[C@@H]4CCO4)c3cn2)[nH]1` [Compound 424a, 4-[(2R)-2-(4-chlorophenyl)-2,3-dihydro-1,4-benzodioxin-5-yl]-1-{[6-(5-methyl-4H-1,2,4-triazol-3-yl)-3-{[(2S)-oxetan-2-yl]methyl}-3H-imidazo[4,5-c]pyridin-2-yl]methyl}piperidine], the EC50 came out at 0.13 nM.

`CC1(c2ccc(Cl)cn2)Oc2cccc(C3CCN(Cc4nc5cc(-c6nnc(C(F)(F)F)[nH]6)ncc5n4C[C@@H]4CCCO4)CC3)c2O1` (stereo partly drawn) [Compound 425a, 5-chloro-2-(2-methyl-4-{1-[(3-{[(2S)-oxolan-2-yl]methyl}-6-[5-(trifluoromethyl)-4H-1,2,4-triazol-3-yl]-3H-imidazo[4,5-c]pyridin-2-yl)methyl]piperidin-4-yl}-2H-1,3-benzodioxol-2-yl)pyridine] came in with an EC50 of 0.13 nM.

With `C[C@]1(c2ccc(Cl)cc2F)Oc2cccc(C3CCN(Cc4nc5cc(-c6nnc(C(F)(F)F)[nH]6)ncc5n4C[C@@H]4CCCO4)CC3)c2O1` [Compound 426a, 4-[(2S)-2-(4-chloro-2-fluorophenyl)-2-methyl-2H-1,3-benzodioxol-4-yl]-1-[(3-{[(2S)-oxolan-2-yl]methyl}-6-[5-(trifluoromethyl)-4H-1,2,4-triazol-3-yl]-3H-imidazo[4,5-c]pyridin-2-yl)methyl]piperidine], the concentration for a half-maximal effect (EC50) worked out at 0.088 nM.

Consider `CO[C@H](C)Cn1c(CN2CCC(c3cccc4c3OC(C)(c3ccc(Cl)cn3)O4)CC2)nc2cc(-c3noc(=O)[nH]3)ncc21` (stereo partly drawn) [Compound 427a, 3-[2-({4-[2-(5-chloropyridin-2-yl)-2-methyl-2H-1,3-benzodioxol-4-yl]piperidin-1-yl}methyl)-3-[(2R)-2-methoxypropyl]-3H-imidazo[4,5-c]pyridin-6-yl]-4,5-dihydro-1,2,4-oxadiazol-5-one], for which a half-maximal effect (EC50) was put at 0.76 nM.

`CO[C@H](C)Cn1c(CN2CCC(c3cccc4c3OC(C)(c3ccc(Cl)cn3)O4)CC2)nc2cc(-c3nnc(C(F)(F)F)[nH]3)ncc21` (stereo partly drawn) [Compound 428a, 5-chloro-2-{4-[1-({3-[(2R)-2-methoxypropyl]-6-[5-(trifluoromethyl)-4H-1,2,4-triazol-3-yl]-3H-imidazo[4,5-c]pyridin-2-yl}methyl)piperidin-4-yl]-2-methyl-2H-1,3-benzodioxol-2-yl}pyridine] returned an EC50 of 0.36 nM.

`CO[C@H](C)Cn1c(CN2CCC(c3cccc4c3O[C@@](C)(c3ccc(Cl)cn3)O4)CC2)nc2cc(-c3nnn[nH]3)ncc21` [Compound 429a, 5-chloro-2-[(2S)-4-[1-({3-[(2R)-2-methoxypropyl]-6-(1H-1,2,3,4-tetrazol-5-yl)-3H-imidazo[4,5-c]pyridin-2-yl}methyl)piperidin-4-yl]-2-methyl-2H-1,3-benzodioxol-2-yl]pyridine]: the EC50 is 0.24 nM.

Molecule `C[C@]1(c2ccc(Cl)cn2)Oc2cccc(C3CCN(Cc4nc5cc(-c6noc(=O)[nH]6)ncc5n4C[C@@H]4CCO4)CC3)c2O1` [Compound 430a, 3-[2-({4-[(2S)-2-(5-chloropyridin-2-yl)-2-methyl-2H-1,3-benzodioxol-4-yl]piperidin-1-yl}methyl)-3-{[(2S)-oxetan-2-yl]methyl}-3H-imidazo[4,5-c]pyridin-6-yl]-4,5-dihydro-1,2,4-oxadiazol-5-one] gave an EC50 of 0.04 nM.

For `C[C@]1(c2ccc(Cl)cc2F)Oc2cccc(C3CCN(Cc4nc5cc(C(=O)O)nnc5n4C[C@@H]4CCO4)CC3)c2O1` [Compound 431a, 6-({4-[(2S)-2-(4-chloro-2-fluorophenyl)-2-methyl-2H-1,3-benzodioxol-4-yl]piperidin-1-yl}methyl)-7-{[(2S)-oxetan-2-yl]methyl}-7H-imidazo[4,5-c]pyridazine-3-carboxylic acid], the EC50 amounted to 0.11 nM.

For the molecule `C[C@]1(c2ccc(Cl)cc2F)Oc2cccc(C3CCN(Cc4nc5cc(C(N)=O)nnc5n4C[C@@H]4CCO4)CC3)c2O1` [Compound 432a, 6-({4-[(2S)-2-(4-chloro-2-fluorophenyl)-2-methyl-2H-1,3-benzodioxol-4-yl]piperidin-1-yl}methyl)-7-{[(2S)-oxetan-2-yl]methyl}-7H-imidazo[4,5-c]pyridazine-3-carboxamide], the concentration for a half-maximal effect (EC50) was found to be 6.9 nM.

Molecule `C[C@]1(c2ccc(C#N)cc2F)Oc2cccc(C3CCN(Cc4nc5cc(-c6noc(=O)[nH]6)ncc5n4C[C@@H]4CCO4)CC3)c2O1` [Compound 433a, 3-fluoro-4-[(2S)-2-methyl-4-{1-[(3-{[(2S)-oxetan-2-yl]methyl}-6-(5-oxo-4,5-dihydro-1,2,4-oxadiazol-3-yl)-3H-imidazo[4,5-c]pyridin-2-yl)methyl]piperidin-4-yl}-2H-1,3-benzodioxol-2-yl]benzonitrile] displayed a half-maximal effective concentration (EC50) of 0.013 nM.

Turning to `Cc1nc(-c2noc(=O)[nH]2)cc2nc(CN3CCC(c4cccc5c4O[C@@](C)(c4ccc(Cl)cc4F)O5)CC3)n(C[C@@H]3CCO3)c12` [Compound 434a, 3-[2-({4-[(2S)-2-(4-chloro-2-fluorophenyl)-2-methyl-2H-1,3-benzodioxol-4-yl]piperidin-1-yl}methyl)-4-methyl-3-{[(2S)-oxetan-2-yl]methyl}-3H-imidazo[4,5-c]pyridin-6-yl]-4,5-dihydro-1,2,4-oxadiazol-5-one], the response was half-maximal at 0.23 nM (EC50).

`Fc1cc(Cl)ccc1COc1cccc(C2CCN(Cc3nc4cc(-c5nnc(C(F)(F)F)[nH]5)ncc4n3C[C@@H]3CCO3)CC2)n1` [Compound 435a, 2-[(4-chloro-2-fluorophenyl)methoxy]-6-{1-[(3-{[(2S)-oxetan-2-yl]methyl}-6-[5-(trifluoromethyl)-4H-1,2,4-triazol-3-yl]-3H-imidazo[4,5-c]pyridin-2-yl)methyl]piperidin-4-yl}pyridine] gave a half-maximal effective concentration (EC50) of 0.018 nM.

Regarding `Fc1cc(Cl)ccc1COc1cccc(C2CCN(Cc3nc4cc(-c5nnc[nH]5)ncc4n3C[C@@H]3CCO3)CC2)n1` [Compound 436a, 2-[(4-chloro-2-fluorophenyl)methoxy]-6-{1-[(3-{[(2S)-oxetan-2-yl]methyl}-6-(4H-1,2,4-triazol-3-yl)-3H-imidazo[4,5-c]pyridin-2-yl)methyl]piperidin-4-yl}pyridine], it took 0.91 nM to reach a half-maximal effect (EC50).
